Test results taken from patent US8735386B2, “Aminopyrazoloquinazolines” (Boehringer Ingelheim International GmbH, priority 2010, dated 2014).

Experiments:
[1] = system: TC-71 (Ewing's sarcoma) cells; test: cells; settings: Homo sapiens, TC-71, 72 h, read-out: EC50 on TC-71 cells
Method: Cell Proliferation Assays
Published scientific data has described that interference with the Insulin-like Growth Factor-1 Receptor (IGF-1R) signaling pathway reduces the proliferation of TC-71 cells. Therefore TC-71 cells served as a positive control cell line for monitoring the activity of compounds against IGF-1R-mediated cell proliferation.
2000 TC-71 cells or 1000 HCT 116 cells were seeded per well in 180 μL IMDM+10% foetal calf serum (FCS)+penicillin/streptomycin into 96-well microtitre plates. The plates were placed in a cell culture incubator (37° C. in a humidified atmosphere of 95% […]/5 CO2) overnight. The following day, serial dilutions of compounds, prepared in duplicates, were transferred onto the cell layers (controls without compound). The cells were cultivated for a further 72 h in the cell culture incubator. 20 μL of Alamar Bluet™ (Serotec Ltd, Düsseldorf, Germany) was added to each well and the plates incubated for 7 h in the cell culture incubator.

[2] = biological target: cytoplasmic kinase domain of human IGF-1R (IGF-1R-GST) (Homo sapiens (Human), UniProt P08069); test: Insulin-like growth factor-1 receptor (IGF-1R)-kinase assay (DELFIA); format: biochemical; settings: inhibition of IGF-1R-kinase activity, read-out: IGF1R IC50
Chain of cytoplasmic kinase domain of human IGF-1R (IGF-1R-GST) (P08069 964-1367 limits assumed): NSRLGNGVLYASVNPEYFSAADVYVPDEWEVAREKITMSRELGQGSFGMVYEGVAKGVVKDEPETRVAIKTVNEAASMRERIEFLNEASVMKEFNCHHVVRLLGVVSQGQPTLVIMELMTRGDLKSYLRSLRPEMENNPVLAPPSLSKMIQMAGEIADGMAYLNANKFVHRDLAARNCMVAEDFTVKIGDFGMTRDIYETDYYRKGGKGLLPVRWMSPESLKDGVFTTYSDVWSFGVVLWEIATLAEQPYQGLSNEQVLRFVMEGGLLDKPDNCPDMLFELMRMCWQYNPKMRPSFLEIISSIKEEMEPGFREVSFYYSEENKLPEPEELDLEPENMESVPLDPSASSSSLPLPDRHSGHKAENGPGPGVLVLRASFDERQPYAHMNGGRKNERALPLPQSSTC
Method: Insulin-Like Growth Factor-1 Receptor (IGF-1R)-Kinase Assay
The kinase activity is measured by DELFIA® assay (dissociation-enhanced lanthanide fluorescence immunoassay, Perkin Elmer). […] Enzyme activity is measured in the presence of substances and a control substance. Poly-glutamate-tyrosine peptide (pEY, Sigma Aldrich) and biotinylated pEY (bio-pEY) are used as reaction substrates.
After 40 min at RT the reactions are stopped with 50 μL of stop solution (250 mM EDTA, 20 mM HEPES pH 7.4). 90 μL from each reaction are transferred onto streptavidin-coated 96-well plates. After 120 min incubation at RT the plates are washed three times with 200 μL phosphate-buffered saline (PBS) per well. The plates are incubated for 60 min with 100 μL of europium-coupled antibody against phospho-tyrosine (diluted 1/2000 in Perkin Elmer DELFIA assay buffer) per well. The plates are washed three times with 200 μL per well of DELFIA washing buffer. 100 μL DELFIA Enhancement Solution (Perkin Elmer) is added to each well, and the plates are incubated for 10 min. The fluorescence signal is measured with a Wallac Victor TRF Reader. IC50 values for the inhibition of the IGF-1R-kinase activity are calculated using the programmes Fifty (Version 2) and GraphPad (Version 3.0).

IC50 [2] [nM] | SMILES | EC50 [1] [nM]
 | CC1Cc2nn(C)c(-c3ccccc3Cl)c2-c2nc(Nc3ccn(C(C)C)n3)ncc21 (racemic) [Compound I-40, 9-(2-chlorophenyl)-5,8-dimethyl-N-(1-propane-2-ylpyrazol-3-yl)-5,6-dihydropyrazolo[3,4-h]quinazolin-2-amine] | < 3000
 | CC1Cc2nn(C)c(-c3ccccc3Cl)c2-c2nc(Nc3ccn(C)n3)ncc21 (racemic) [Compound I-42, 9-(2-chlorophenyl)-5,8-dimethyl-N-(1-methylpyrazol-3-yl)-5,6-dihydropyrazolo[3,4-h]quinazolin-2-amine] | < 3000
 | COc1cc(N2CCN(C)CC2)ccc1Nc1ncc2c(n1)-c1c(nn(C)c1-c1ccccc1Cl)CC2C (racemic) [Compound I-97, 9-(2-chlorophenyl)-N-[2-methoxy-4-(4-methylpiperazin-1-yl)phenyl]-5,8-dimethyl-5,6-dihydropyrazolo[3,4-h]quinazolin-2-amine] | < 3000
 | COc1cc(C(=O)NC2CCN(C)CC2)ccc1Nc1ncc2c(n1)-c1c(nn(C)c1-c1ccccc1Cl)CC2C (racemic) [Compound I-157, 4-[[9-(2-chlorophenyl)-5,8-dimethyl-5,6-dihydropyrazolo[3,4-h]quinazolin-2-yl]amino]-3-methoxy-N-(1-methylpiperidin-4-yl)benzamide] | < 3000
 | CC1Cc2nn(C)c(Cc3ccccc3Cl)c2-c2nc(Nc3cnn(C4CCNCC4)c3)ncc21 (racemic) [IV-2a] | < 3000
 | COC(=O)c1ccc(Nc2ncc3c(n2)-c2c(nn(C)c2-c2ccccc2Cl)CC3)c(OC)c1 [Compound I-3] | < 3000
 | Cn1nccc1Nc1ncc2c(n1)-c1c(nn(C)c1-c1ccccc1Cl)CC2 [Compound I-23] | < 3000
 | CCn1ccc(Nc2ncc3c(n2)-c2c(nn(C)c2-c2ccccc2Cl)CC3)n1 [Compound I-30, 9-(2-chlorophenyl)-N-(1-ethylpyrazol-3-yl)-8-methyl-5,6-dihydropyrazolo[3,4-h]quinazolin-2-amine] | < 3000
 | Cc1cc(Nc2ncc3c(n2)-c2c(nn(C)c2-c2ccccc2Cl)CC3)nn1C [Compound I-109] | < 3000
 | COc1cc(C(=O)NC2CCN(C)CC2)ccc1Nc1ncc2c(n1)-c1c(nn(C)c1-c1ccccc1Cl)CC2 [Compound I-112, 4-[[9-(2-chlorophenyl)-8-methyl-5,6-dihydropyrazolo[3,4-h]quinazolin-2-yl]amino]-3-methoxy-N-(1-methylpiperidin-4-yl)benzamide] | < 3000
 | Cc1cccc(-c2c3c(nn2C)CCc2cnc(Nc4ccccc4)nc2-3)c1Cl [Compound I-147] | < 3000
 | COCCn1ccc(Nc2ncc3c(n2)-c2c(nn(C)c2-c2ccc(Cl)cc2)CC3)n1 [Compound I-171, 9-(4-chlorophenyl)-N-[1-(2-methoxyethyl)pyrazol-3-yl]-8-methyl-5,6-dihydropyrazolo[3,4-h]quinazolin-2-amine] | < 3000
 | CCn1ccc(Nc2ncc3c(n2)-c2c(nn(C)c2-c2sccc2C)CC3)n1 [Compound I-172] | < 3000
 | Cc1ccsc1-c1c2c(nn1C)CCc1cnc(Nc3ccn(CCN(C)C)n3)nc1-2 [Compound I-189, N-[1-(2-dimethylaminoethyl)pyrazol-3-yl]-8-methyl-9-(3-methylthiophen-2-yl)-5,6-dihydropyrazolo[3,4-h]quinazolin-2-amine] | < 3000
 | CCn1ccc(Nc2ncc3c(n2)-c2c(nn(C)c2-c2cccc(OC)c2)CC3)n1 [Compound I-293] | < 3000
 | Cc1cc(Nc2ncc3c(n2)-c2c(nn(C)c2-c2ccc(OC(F)F)cc2)CC3)nn1C [Compound I-294] | < 3000
 | COc1cc(C(=O)O)ccc1Nc1ncc2c(n1)-c1c(nn(C)c1-c1ccccc1Cl)CC2 [II-18] | < 3000
92 | CCOc1cc(C(=O)NC)ccc1Nc1ncc2c(n1)-c1c(nn(C)c1-c1ccccc1)CC2 [III-3] | 
 | COc1cc(C(=O)NC2CC(N3CCN(C)CC3)C2)ccc1Nc1ncc2c(n1)-c1c(nn(C)c1-c1ccccc1Cl)CC2 (stereo not drawn) [III-38] | < 3000
 | COc1cc(C(=O)NC2CCN(C)CC2)ccc1Nc1ncc2c(n1)-c1c(nn(C)c1-c1sccc1C)CC2 [III-105] | < 3000
 | COc1cc(C(=O)NC2CCN(C)CC2)ccc1Nc1ncc2c(n1)-c1c(nn(C)c1Cc1c(Cl)cccc1Cl)CC2 [III-107] | < 3000
 | CC1Cc2nn(C)c(Cc3ccccc3Cl)c2-c2nc(Nc3cnn(C4CCN(C5CCOCC5)CC4)c3)ncc21 (stereo not drawn) [IV-9a] | < 3000
 | CC(=O)N1CCC(N2CCC(n3cc(Nc4ncc5c(n4)-c4c(nn(C)c4Cc4ccccc4Cl)CC5C)cn3)CC2)CC1 (stereo not drawn) [IV-9b] | < 3000
 | CC1Cc2nn(C)c(Cc3ccccc3Cl)c2-c2nc(Nc3cnn(C4CCN(CCO)CC4)c3)ncc21 (stereo not drawn) [IV-9c] | < 3000
